Consider three compounds from patent US12103945B2, “Crystalline form of vascular leakage blocker compound” (Curacle Co., Ltd., priority 2020, dated 2024).

Values after ≈ are worked out from the molar mass of the structure shown.

A short description of data set [1]: Solubility assay by visual observation and manual dilution. It counts as physicochemical. Conditions: thermodynamic from solid, room temperature. How it is done: Solubility assay was performed by visual observation and manual dilution at room temperature. […] The total amount of the solvent was recorded to calculate the solubility for each solvent.
Data set [2] can be described thus: Crystalline form change on storage at room temperature (XRPD). It counts as physicochemical. As to the method: The X-ray powder diffraction (XRPD) pattern was obtaine d on a Shimadzu XRD-6000 instrument.
• Tube: Cu: K-α (λ=1.54056 Å) • Generator: Voltage: 40 kV; Current: 30 mA • Scan Scope: 3˜50 deg. Scanning rate: 5 deg./min
[…] Particularly, XRPD was performed according to the method described in <Experimental Methods> 1. X-ray Powder Diffractometer (XRPD).

[3] abbreviates: stored at room temperature for 2 months.
The mark [4] stands for this setting: stored at room temperature for 3 months.

On to `COC(=O)CCC/C=C(\C)[C@H]1CC[C@H]2[C@@H]3CC=C4C[C@@H](OC5C=C[C@H](OC(C)=O)[C@@H](COC(C)=O)O5)CC[C@]4(C)[C@H]3CC[C@]12C` (stereo partly drawn) [compound 1, (E)-methyl 6-((3S,8S,9S,10R,13S,14S,17R)-3-(((5S,6R)-5-acetoxy-6-(acetoxymethyl)-5,6-dihydro-2H-pyran-2-yl)oxy)-10,13-dimethyl-2,3,4,7,8,9,10,11,12,13,14,15,16,17-tetradecahydro-1H-cyclopenta[a]phenanthrene-17-yl)hept-5-enoate], for which the solubility in data set [1] (organic solvent or mixture, solvent 1,4-dioxane) was over 100 mg/mL; in data set [1] (organic solvent or mixture, solvent 1-butanol), 26 to 52 mg/mL (≈ 41.5 to 83 mM); in data set [1] (organic solvent or mixture, solvent 2-methyl-tetrahydrofuran) it was over 93.2 mg/mL; in data set [1] (organic solvent or mixture, solvent Acetone), over 100 mg/mL; in data set [1] (organic solvent or mixture, solvent Acetonitrile (ACN)) it was over 82.6 mg/mL; in data set [1] (organic solvent or mixture, solvent Anisole), over 100 mg/mL. In addition, the solubility in data set [1] (organic solvent or mixture, solvent Butyl acetate) is over 88.6 mg/mL; in data set [1] (organic solvent or mixture, solvent Chloroform) it was over 100 mg/mL; in data set [1] (organic solvent or mixture, solvent Cyclohexane), 26 to 40 mg/mL (≈ 41.5 to 63.8 mM); in data set [1] (organic solvent or mixture, solvent Dichloromethane (DCM)), over 100 mg/mL; in data set [1] (organic solvent or mixture, solvent Dimethyl sulfoxide (DMSO)) it was 30 to 45 mg/mL (≈ 47.9 to 71.8 mM); in data set [1] (organic solvent or mixture, solvent Ethanol (EtOH)) it was 5.1 to 6.4 mg/mL (≈ 8.14 to 10.2 mM). Also, the solubility in data set [1] (organic solvent or mixture, solvent Ethyl acetate (EtOAc)) was over 100 mg/mL; in data set [1] (organic solvent or mixture, solvent Isopropanol (IPA)), 5.1 to 6.8 mg/mL (≈ 8.14 to 10.8 mM); in data set [1] (organic solvent or mixture, solvent Isopropyl acetate (iPrOAc)), over 100 mg/mL; in data set [1] (organic solvent or mixture, solvent Isopropyl ether) it was 65.2 to 130 mg/mL (≈ 104 to 208 mM); in data set [1] (organic solvent or mixture, solvent Methanol (MeOH)), 6.9 to 8.2 mg/mL (≈ 11 to 13.1 mM); in data set [1] (organic solvent or mixture, solvent Methyl ethyl ketone (MEK)), over 100 mg/mL. The solubility in data set [1] (organic solvent or mixture, solvent Methyl tert-butyl ether (MTBE)) is over 85.4 mg/mL; in data set [1] (organic solvent or mixture, solvent N,N-dimethylformamide (DMF)), over 100 mg/mL; in data set [1] (organic solvent or mixture, solvent Petroleum ether), 11.5 to 15.3 mg/mL (≈ 18.3 to 24.4 mM); in data set [1] (organic solvent or mixture, solvent Tetrahydrofuran (THF)), over 76 mg/mL; in data set [1] (organic solvent or mixture, solvent Toluene), over 83 mg/mL; in data set [1] (organic solvent or mixture, solvent n-heptane), 6.3 to 8.8 mg/mL (≈ 10.1 to 14 mM). Moreover, the solubility in data set [1] (organic solvent or mixture, solvent n-propanol) is 26.1 to 52.1 mg/mL (≈ 41.6 to 83.1 mM); in data set [1] (solvent Water (H2O)), under 1 mg/mL.

As to `COC(=O)CCC/C=C(\C)[C@H]1CC[C@H]2[C@@H]3CC=C4C[C@@H](O[C@@H]5C=C[C@H](OC(C)=O)[C@@H](COC(C)=O)O5)CC[C@]4(C)[C@H]3CC[C@]12C` [crystalline form IV, (E)-methyl 6-((3S,8S,9S,10R,13S,14S,17R)-3-(((2S,5S,6R)-5-acetoxy-6-(acetoxymethyl)-5,6-dihydro-2H-pyran-2-yl)oxy)-10,13-dimethyl-2,3,4,7,8,9,10,11,12,13,14,15,16,17-tetradecahydro-1H-cyclopenta[a]phenanthrene-17-yl)hept-5-enoate], the “Change of crystalline form (XRPD pattern)” value in data set [2] (setting [3]) and in data set [2] (setting [4]) was “a novel crystalline form having the XRPD pattern different from that of the crystalline form IV was confirmed” throughout.

As for `COC(=O)CCC/C=C(\C)[C@H]1CC[C@H]2[C@@H]3CC=C4C[C@@H](O[C@@H]5C=C[C@H](OC(C)=O)[C@@H](COC(C)=O)O5)CC[C@]4(C)[C@H]3CC[C@]12C` [crystalline form V, (E)-methyl 6-((3S,8S,9S,10R,13S,14S,17R)-3-(((2S,5S,6R)-5-acetoxy-6-(acetoxymethyl)-5,6-dihydro-2H-pyran-2-yl)oxy)-10,13-dimethyl-2,3,4,7,8,9,10,11,12,13,14,15,16,17-tetradecahydro-1H-cyclopenta[a]phenanthrene-17-yl)hept-5-enoate], the “Change of crystalline form (XRPD pattern)” value in data set [2] (setting [3]) and in data set [2] (setting [4]) was “a novel crystalline form having the XRPD pattern different from that of the crystalline form V was confirmed” in each case.

For orientation: solubility means the dissolved amount per volume that the medium holds.
